In patent publication US20060046975A1, “Method for preparing a medical solution for the manufacture of a medicament for peritoneal dialysis” (priority 2002, published 2006):

Tests used:
peritoneum = conditions: cited from earlier work
[1] = pH change of the solution during sterilisation; assay type: physicochemical
Description: NAG and other amino sugars have a major difference from glucose and glucose-like compounds by having one amino group and possibly an acetyl group coupled to the glucose ring.

[2] = fluorescence of terminally heat sterilised NAG containing solution; assay type: physicochemical; conditions: FIG. 3; excitation at 350 nm, emission of 430 nm
Description: (§1) A simple, reliable and known way to study the cytotoxicity of substances or of medical fluids is to test proliferation as in vitro inhibition of cell growth (ICG) in cultured cells. Another method to get a rough estimation of the amount of amino sugars that is rearranged is measurement of the fluorescence.
The lowest fluorescence is seen at around pH 4.

cultured cells = assay: in vitro inhibition of cell growth (ICG) in cultured cells by heat sterilised NAG solutions; assay type: cell-based
Description: Experiments in which measurements of the percentage of inhibition of cell growth (ICG) and fluorescence have been made at varying NAG concentrations, and also at varying pH values, during terminal heat sterilisation are illustrated in FIGS. 1-4. The results of the experiments imply that the concentration of the amino sugar/sugars should be optimised.
as §1
More precisely, from the graph in FIG. 1 it can be seen that the inhibition of cell growth reaches a maximum with sterilisation of a solution containing about 5% NAG. With increasing NAG concentration the inhibition of cell growth decreases.
The bar diagram in FIG. 2 illustrates the effect of increased NAG concentration at different pH values during terminal heat sterilisation.

[3] = tested on: human peritoneal mesothelial cells and fibroblasts; conditions: Breborowicz et al 1998; cited from earlier work
[4] = analysis of degradation products (3-DG, 3,4-DGE) in heat sterilised solutions by HPLC; assay type: physicochemical; conditions: heat sterilised NAG solutions
Description: This cytotoxicity depends on the formation of toxic degradation products from said amino sugars. […] This fact has not been known previously and forms the basis for the present invention. It should be noted that the decomposition pattern for an amino sugar solution during heat sterilisation follows specific Maillard reactions giving several different toxic decomposition products. The decomposition pattern differs for e.g. a glucose solution during heat sterilisation, wherein different decomposition products are formed. This difference is illustrated in FIGS. 5a-5d, showing chromatograms when analysing 3-DG and 3,4-DGE in a NAG solution and in a glucose solution, respectively. The difference in degradation is likely due to that the NAG molecules contains groups that allows the Maillard reaction to take place and therefore create a large number of degradation products not seen in a glucose solution.

Row | change of pH of the solution during sterilisation [1] | pH at which fluorescence is lowest [2] | Molecule | function of the peritoneum as a dialysis membrane (peritoneum; Wieczorowska et al 1995, fluid supplemented with exogenous hyaluronan) | effect on the peritoneum of dialysis solution supplemented with N-acetylglucosamine (peritoneum; Wu et al 1998, chronic peritoneal dialysis) | inhibition of cell growth with increasing NAG concentration (cultured cells; FIG. 1, above the maximum at about 5% NAG) | NAG concentration during sterilisation at which inhibition of cell growth reaches a maximum (cultured cells; FIG. 1, terminal heat sterilisation) | inhibition of cell growth, effect of NAG concentration during sterilisation (cultured cells; FIG. 2, 30% versus 1.5% NAG, for all three pH values) | percentage inhibition of cell growth, effect of pH during sterilisation (cultured cells; FIG. 2, pH 3.0 versus pH 5.5 and 7.2) | optimal pH of sterilisation from an in vitro toxicological point of view (cultured cells; NAG containing solution, higher or lower pH gives higher percentage of inhibited growth) | cytotoxicity after heat sterilisation (cultured cells; amino sugars, e.g. NAG, in conventional medical solutions) | production of hyaluronan and sulphated glycosaminoglycans [3] | known glucose degradation products found [4]
1 | – | – | hyaluronan [reference compound] | better preserved | – | – | – | – | – | – | – | – | –
2 | increases during sterilisation | ~4 | CC(=O)N[C@H]1C(O)O[C@H](CO)[C@@H](O)[C@@H]1O (stereo partly drawn) [NAG, N-acetylglucosamine] | – | causes accumulation of glucosaminoglycans in the peritoneal interstitium | decreases | about 5% | lower after a terminal heat sterilisation at a NAG concentration of 30% than at a NAG concentration of 1.5% | lower after terminal heat sterilisation at a pH of 3.0 than at a pH of 5.5 and 7.2 | 2.5-3.5 | increased cytotoxicity | rapidly stimulates | none of the known glucose degradation products has been found
